# Experimental data: patent US8765741B2, “5,6-dihydro-1H-pyridin-2-one compounds” (Anadys Pharmaceuticals, Inc., priority 2007, dated 2014)
# Tested on: HCV replicon
# Experiment: HCV replicon assay
# Type: cell-based
# Conditions: Hepatitis C virus; Example numbers 64 and 65 in Table 1; HCV replicon cells, 72 hours exposure; read-out: EC50 (HCV replicon inhibition)
# Procedure: HCV Replicon Assay (Replicon EC50 (μM))
# The cell culture component of the assay is performed essentially as described by Bartenschlager et al., Hepatology 2002, 35, 694-703, wherein exponentially growing HCV Huh-7/C24 replicon cells are seeded at 4.5×10^3 cells/well in 96 well plates and 24 hours later are treated with six point half-log concentration of compound. After 72 hours exposure the media is discarded from the compound assay plate and the cell monolayers are lysed by addition of 150 µL lysis mixture (Genospectra) with incubation at 53° C. for 45 minutes. Following incubation, each lysate is thoroughly mixed and 5 µl (NS3 probe) or 10 µL (GAPDH probe) of each lysate is then transferred to the capture plate and analyzed by bDNA assay.
# Branched DNA (bDNA) Assay […]
# After subsequent addition of the chemilumigenic substrate (dioxetan), each plate is read by luminometer (Wallac 1420 Multilabel HTS Counter Victor 2). The luminescence signal is proportional to the amount of mRNA present in each lysate. In addition to the samples, cell lysate only (no probe) background controls are also included on each bDNA assay plate and the average signal from these control wells is subtracted from the sample reading prior to analysis. Percent of no drug control is determined for both the NS3 and GAPDH signals for each compound also. […]
row,SMILES,EC50 [nM]
1,"O=C1C(C2=NS(=O)(=O)c3ncccc3N2)=C(O)[C@@H]2[C@H]3CC[C@H](C3)[C@@H]2N1Cc1ccc(F)cc1 [Example 65, (1R,2S,7R,8S)-5-(1,1-Dioxo-1,4-dihydro-1λ^6-pyrido[3,2-e][1,2,4]thiadiazin-3-yl)-3-(4-fluoro-benzyl)-6-hydroxy-3-aza-tricyclo[6.2.1.0^2,7]undec-5-en-4-one]",100 to 1000
2,"O=C1C(C2=NS(=O)(=O)c3cnccc3N2)=C(O)[C@@H]2[C@H]3CC[C@H](C3)[C@@H]2N1Cc1ccc(F)cc1 [Example 64, (1R,2S,7R,8S)-5-(1,1-Dioxo-1,4-dihydro-1λ^6-pyrido[4,3-e][1,2,4]thiadiazin-3-yl)-3-(4-fluoro-benzyl)-6-hydroxy-3-aza-tricyclo[6.2.1.0^2,7]undec-5-en-4-one]",100 to 1000
